From article PMC6572293, “Antihypertensive Effects of Corn Silk Extract and Its Novel Bioactive Constituent in Spontaneously Hypertensive Rats: The Involvement of Angiotensin-Converting Enzyme Inhibition” (Molecules, 2019)
Read-outs that look alike come from different tables or passages of the source. Peptide text beside a SMILES is read from it.

Experiments:
ACE (serum) [1] = target: T1, ACE (serum) (Mus musculus, UniProt P09470); test: ACE activity assay, H-HL substrate; type: biochemical, mouse (BALB/c serum)
T1 construct: Mouse sera collected from normal BALB/c mice were used as the source of soluble somatic ACE; from tissue; host or cells: serum of normal BALB/c mice
T1 sequence (P09470 35-1237 limits assumed): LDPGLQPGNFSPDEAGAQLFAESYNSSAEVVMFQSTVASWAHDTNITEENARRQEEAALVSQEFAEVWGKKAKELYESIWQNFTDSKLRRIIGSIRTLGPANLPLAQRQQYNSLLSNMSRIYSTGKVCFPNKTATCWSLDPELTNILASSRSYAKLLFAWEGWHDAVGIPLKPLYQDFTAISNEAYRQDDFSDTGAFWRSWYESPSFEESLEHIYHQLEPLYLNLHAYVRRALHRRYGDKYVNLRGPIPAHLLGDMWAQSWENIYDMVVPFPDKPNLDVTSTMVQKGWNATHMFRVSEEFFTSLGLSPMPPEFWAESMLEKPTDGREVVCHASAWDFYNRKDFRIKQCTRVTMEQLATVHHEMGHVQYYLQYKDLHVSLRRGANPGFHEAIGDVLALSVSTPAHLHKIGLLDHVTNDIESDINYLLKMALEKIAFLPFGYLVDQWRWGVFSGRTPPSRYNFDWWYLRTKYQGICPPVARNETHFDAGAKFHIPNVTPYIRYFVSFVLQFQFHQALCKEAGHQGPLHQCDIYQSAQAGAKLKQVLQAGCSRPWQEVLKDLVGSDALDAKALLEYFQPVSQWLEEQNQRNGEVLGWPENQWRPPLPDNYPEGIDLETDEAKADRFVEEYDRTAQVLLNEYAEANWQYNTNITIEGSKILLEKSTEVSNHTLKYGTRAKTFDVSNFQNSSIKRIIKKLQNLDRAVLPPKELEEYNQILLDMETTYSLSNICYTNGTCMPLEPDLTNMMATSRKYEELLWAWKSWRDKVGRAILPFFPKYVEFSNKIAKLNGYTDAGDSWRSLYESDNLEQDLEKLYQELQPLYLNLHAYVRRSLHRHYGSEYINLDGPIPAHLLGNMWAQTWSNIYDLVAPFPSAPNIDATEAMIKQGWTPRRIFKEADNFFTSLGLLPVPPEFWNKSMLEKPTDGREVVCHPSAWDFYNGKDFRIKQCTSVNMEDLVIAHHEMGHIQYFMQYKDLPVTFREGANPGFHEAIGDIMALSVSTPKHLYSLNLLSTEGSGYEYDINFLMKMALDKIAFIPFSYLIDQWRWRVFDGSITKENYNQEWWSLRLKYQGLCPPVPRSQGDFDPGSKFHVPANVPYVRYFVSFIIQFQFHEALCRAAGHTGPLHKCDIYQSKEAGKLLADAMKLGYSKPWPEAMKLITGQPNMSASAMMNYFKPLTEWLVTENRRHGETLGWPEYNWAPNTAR
Description: (§1) Various amounts of CSBp5 were mixed with mouse sera in the presence of H-HL or Z-FHL substrate, and the ACE activity was determined by measuring the fluorescence-labeled hydrolyzed substrates.
(§2) ACE activity assay was performed as described previously with a slight modification. Mouse sera collected from normal BALB/c mice were used as the source of soluble somatic ACE. ACE activity in mouse serum was determined as described previously. […] To correct the intrinsic fluorescence of mouse serum, blank was performed according to the aforementioned procedures without inhibitors.

ACE (serum) [2] = target: T1, ACE (serum); test: ACE activity assay, Z-FHL substrate; type: biochemical, mouse (BALB/c serum); conditions: various concentrations
Description: as §1, §2

SHRs [3] = test: Tail diastolic blood pressure in spontaneously hypertensive rats; type: in vivo, rat (male SHR); conditions: SHR, oral, various dosages of CSBp5, 0 and 1 h; n = 6
Description: Male SHRs (200–250 g, 10 week-old) were purchased from National Laboratory Animal Center (Taipei, Taiwan). Rats were maintained under a 12 h day/12 h night cycle and had free access to water and food. Rat experiments were conducted under ethics approval from China Medical University Animal Care and Use Committee (Permit No. 104-75-N).
(§3) SHRs with tail SBP ≥ 180 mmHg were randomly divided into five groups with six rats per group. Rats were given intraperitoneally or orally with 400 μL of distilled water (blank), captopril (Catalog No. C4042), or various dosages of CSE or peptide (dissolved in water). SBP was measured by a tail-cuff apparatus (Non-Invasive Blood Pressure System, Panlab, Barcelona, Spain). Rats were placed in a warm holder kept at 37 ± 1 °C for 10 min before the measurement. Changes in SBP were calculated by subtracting SBP at indicated time point from SBP at 0 h.
Antihypertensive Effects of Corn Silk Extract and
Its Novel Bioactive Constituent in Spontaneously
Hypertensive Rats: The Involvement of
Angiotensin-Converting Enzyme Inhibition
Chia-Cheng Li 1, Yu-Chen Lee 2,3, Hsin-Yi Lo 1, Yu-Wen Huang 4, Chien-Yun Hsiang 5,* and […]
μmol/kg captopril or various dosages of CSBp5. Tail diastolic blood pressure was measured
at 0 and 1 h. Data are expressed as diastolic blood pressure (mmHg) (top panel) or changes in […]

[4] = tested on: spontaneously hypertensive rats (SHRs); test: Tail-cuff systolic blood pressure in spontaneously hypertensive rats; type: in vivo, rat (male SHR); conditions: SHR; for Decrease of SBP, intraperitoneal: 1 h after injection
Description: as §3, with “Male SHRs (200–250 g, 10 week-old) were purchased from National Laboratory Animal Center (Taipei, Taiwan). Rats were maintained under a 12 h day/12 h night cycle and had free access to water and food. Rat experiments were conducted under ethics approval from China Medical University Animal Care and Use Committee (Permit No. 104-75-N). SHRs” for “SHRs”

ACE N-domain = ACE N-domain selective inhibitor; cited from earlier work
Description: Somatic ACE is composed of two similar catalytic domains (N- and C-domains).

[5] = tested on: healthy human subjects and animals; conditions: exogenously administered angiotensin I, no reference given; cited from earlier work
Description: CSE was a protein-rich extract and the protein content of CSE was 10.86%. Moreover, the well-known ACE inhibitors are amino acid or dipeptide drugs. Therefore, we proposed that there were bioactive peptides responsible for the anti-hypertensive activities of CSE. Proteomics and bioinformatics analyses were further applied to identify the anti-hypertensive bioactive peptides in CSE. Peptides with anti-hypertensive potentials have been determined from corn. For example, dipeptide Ala-Tyr (AY) has been identified from corn gluten meal, a major byproduct of corn wet milling. AY affects the ACE act ...

ACE = conditions: cited from earlier work
Description: (§4) Food peptides with anti-ACE activities have been identified from plants and animals. For example, oligopeptides FDGIP and AIDPVRA are ACE inhibitor derived from Caulerpa lentillifera. […] Peptides from auto-digested reishi (Ganoderma lingzhi) extract show potent inhibition against ACE and hypotensive activities in SHRs. Lacto-tr ... || CSE was a protein-rich extract and the protein content of CSE was 10.86%. Moreover, the well-known ACE inhibitors are amino acid or dipeptide drugs. Therefore, we proposed that there were bioactive peptides responsible for the anti-hypertensive activities of CSE. Proteomics and bioinformatics analyses were further applied to identify the anti-hypertensive bioactive peptides in CSE. Peptides with anti-hypertensive potentials have been determined from corn. For example, dipeptide Ala-Tyr (AY) has been identified from corn gluten meal, a major byproduct of corn wet milling. AY affects the ACE act ...

SHRs [6] = conditions: SHR, cited from earlier work
Description: as §4

[7] = from Coix glutelin; cited from earlier work
Description: (§5) Food peptides with anti-ACE activities have been identified from plants and animals. For example, oligopeptides FDGIP and AIDPVRA are ACE inhibitor derived from Caulerpa lentillifera. […] Peptides from auto-digested reishi (Ganoderma lingzhi) extract show potent inhibition against ACE and hypotensive activities in SHRs. Lacto-tr ...

[8] = tested on: subjects with blood pressure ranging from normal to mild hypertension; conditions: intake of tablets containing VPP and IPP; cited from earlier work
Description: as §5

endothelial function = conditions: in vitro; cited from earlier work
Description: as §5

[9] = intraperitoneal, 10 μmol/kg, tail-cuff, mean ± standard error, n = 6

For CC(C)C[C@H](NC(=O)[C@H](CC(N)=O)NC(=O)[C@H](CC(=O)O)NC(=O)[C@H](Cc1ccccc1)NC(=O)[C@H](CCCCN)NC(=O)[C@@H](N)CO)C(=O)N[C@@H](Cc1ccc(O)cc1)C(=O)NCC(=O)N[C@@H](CS)C(=O)N[C@@H](CCCNC(=N)N)C(=O)O [CSBp5] (H-SKFDNLYGCR-OH; N-terminus and C-terminus assumed), the “Domain preference of ACE inhibition (in words)” value (ACE (serum) [1]; H-HL versus Z-FHL hydrolysis) was “a more effective inhibition on the C-domain of ACE”, the “Inhibition of ACE activity, H-HL (in words)” value (ACE (serum) [1]; mouse serum ACE, H-HL, various concentrations) was “inhibited the ACE activity and the inhibition displayed a dose-dependent manner” and the “Inhibition of ACE activity, Z-FHL (in words)” value (ACE (serum) [2]) was “inhibited the ACE activity and the inhibition displayed a dose-dependent manner”. For the same compound, the “Changes in diastolic blood pressure (in words)” value (SHRs [3]) was “consistent with the changes in SBP”, the “Decrease of SBP, intraperitoneal” value [4, 9] was 28.33 ± 12.5 mmHg and the “Decrease of SBP, intraperitoneal (in words)” value ([4]; intraperitoneal, various dosages, 1 h) was “decreased SBP levels in a dose-dependent manner”. The “Decrease of SBP, oral” value ([4]; oral, 10 μmol/kg, 1 h, tail-cuff, mean ± standard error, n = 6) was 36.78 ± 13.25 mmHg, the “Decrease of SBP at 2 h (time course)” value ([4]; oral, 10 μmol/kg) was roughly 30 mmHg and the “Duration of SBP decrease (in words)” value ([4]; oral, 10 μmol/kg, measured at 0, 1, 2, 4 and 6 h) was “persistent during a 6-h measurement”. For the same compound, the “Decrease of SBP, oral (in words)” value ([4]; oral, various dosages, 1 h) was “decreased the SBP levels in a dose-dependent manner”.

For CC(=O)N[C@@H](CC(=O)O)C(=O)N[C@@H](Cc1ccccc1)P(=O)(O)C[C@@H](C)C(=O)N[C@@H](C)C(N)=O [RXP407], the “Effect on blood pressure (in words)” value (ACE N-domain) is given as “no effect on blood pressure”.

In the case of C[C@H](CS)C(=O)N1CCC[C@H]1C(=O)O [captopril], the “Angiotensin I-induced elevation of blood pressure (in words)” value [5] is given as “attenuated or abolished”, the “Decrease of SBP, intraperitoneal” value [4, 9] is given as 52.83±19.06 mmHg and the “Decrease of SBP at 2 h (time course)” value ([4]; oral, 10 μmol/kg) is given as “approximately 60 mmHg”. The “SBP level lower than that of the blank group” value ([4]; oral, 10 mg/kg, SBP at 0 and 1 h, tail-cuff, mean ± standard error, n = 6) was 47.6 ± 4.34 mmHg.

In the case of “AIDPVRA [oligopeptide derived from Caulerpa lentillifera]”, the “ACE inhibition (in words)” value (ACE; from Caulerpa lentillifera) is given as “ACE inhibitor”.

For Ala-Tyr [AY], the “Maximal reduction of SBP” value (SHRs [6]; oral, 50 mg/kg, 2 h) is given as 9.5 mmHg and the IC50 (ACE; read-out: IC50, ACE) is given as 14.2 µM.

For “FDGIP [oligopeptide derived from Caulerpa lentillifera]”, the “ACE inhibition (in words)” value (ACE; from Caulerpa lentillifera) is given as “ACE inhibitor”.

In the case of GAAGGAF, the “Antihypertensive effect (in words)” value [7] is listed as “significant antihypertensive effect”.

In the case of “Ile-Pro-Pro [IPP, lacto-tripeptide from sour milk]”, the “Improvement in hypertension and side effects (in words)” value [8] is listed as “mild improvement in hypertension without side effects”, the “Endothelial function (in words)” value (endothelial function) is listed as “protect the endothelial function in vitro” and the “Anti-hypertensive effect in SHRs (in words)” value (SHRs [6]) is listed as “exhibit anti-hypertensive effects in SHRs”. The “ACE inhibition (in words)” value (ACE; sour milk peptides) was “inhibit the ACE activity”.

For “Met-Ile/Leu-Pro-Pro [tetrapeptide from hydrolyzed zein]”, the “IC50, ACE in vitro” value (ACE) is listed as 70.32 µg/mL and the IC50 (ACE; read-out: IC50, ACE in vitro) is listed as 155 µM.

In the case of “Val-Pro-Pro [VPP, lacto-tripeptide from sour milk]”, the “Improvement in hypertension and side effects (in words)” value [8] is listed as “mild improvement in hypertension without side effects”, the “Endothelial function (in words)” value (endothelial function) is listed as “protect the endothelial function in vitro” and the “Anti-hypertensive effect in SHRs (in words)” value (SHRs [6]) is listed as “exhibit anti-hypertensive effects in SHRs”. For the same compound, the “ACE inhibition (in words)” value (ACE; sour milk peptides) was “inhibit the ACE activity”.
